Measurements published in patent US6346610B1, “Process for preparing antifungal V-28-3M” (Ajinomoto Co., Ltd., priority 1997, dated 2002).
Read-outs that look alike come from different tables or passages of the source.

Experiments:
[1] = antimycotic activity of V-28-3M; details: V-28-3M obtained by Example 5, compared with V-28-3M described in JP-A-3-81225
[2] = background statement, JP-A-63-218686 and JP-A-3-81225; cited from earlier work
animal cells = details: background statement, JP-A-63-218686 and JP-A-3-81225; cited from earlier work

Structure (SMILES): COC(=O)C1C(O)CC2(O)CC(O)CC(O)CC(O)CC(O)CC(=O)CC(O)CC(=O)OC(C(C)CCC(O)CC(=O)c3ccc(N)cc3)C(C)\C=C/C=C\C=C\C=C\C=C\C=C\C=C\C(OC3OC(C)C(O)C(N)C3O)CC1O2 (stereo not drawn) [Example V-28-3M, V-28-3M]
- antimycotic activity [1]: the same result was also obtained
- antimycotic activity [2]: high
- toxicity for animal cells (animal cells): low
